Results as given in US6461997B1, “Triazole sulfones having herbicidal activity” (Monsanto Technology LLC, priority 1999, dated 2002).

Tests used:
BROTE (downy brome) = experiment: Post-emergence herbicidal activity, cool season; format: in vivo, Bromus tectorum; settings: abraded plants sprayed at 300, 100, 30 and 10 g/ha; about 14 days after treatment
Procedure: (§1) In another set of tests, the post-emergence activity of compounds of this invention was evaluated on the cool season species listed above. The following procedure was used.
(§2) A pre-prepared topsoil mixture (described above) was placed in a pot and compacted to a depth of 1.0 to 1.25 cm from the top of the pot. Seeds of each of several monocotyledonous and dicotyledonous annual plant species were placed on top of the soil. The seeds were covered with a mixture of 50% topsoil and 50% Rediearth™ in sufficient quantity to level-fill the pots. The pots were then placed on a greenhouse bench and subirrigated as needed.
(§3) When plants growing from the seeds had emerged and reached a suitable growth stage for post-emergence treatment, typically 9 to 14 days after planting, above-ground parts of the plants were subjected to a pre-treatment involving abrasion to create greater opportunity for foliar uptake of subsequently applied compounds. Abrasion was performed using garnet 200w particles applied with a Sears Craftsman hand-held sandblaster operated at approximately 850 kPa (50 psig) pressure.
(§4) A known amount of each test compound dissolved or suspended in an appropriate organic solvent was diluted with a 50:50 mix of acetone and water and applied to the plants by spraying with a standard spray nozzle in a spray volume of […] at a spray pressure of 511 kPa (30 psig). Only the compounds of Examples 1, 8-15 and 17-22 were included in post-emergence tests. Application rates for these compounds were 300, 100, 30 and 10 g/ha. Control plants were abraded but not sprayed.
(§5) After treatment the plants were placed in a greenhouse with an 18/13° C. day/night temperature regime and were subsequently watered as needed for growth. Approximately 14 days after treatment, the plants were observed and herbicidal efficacy recorded as percent inhibition by comparison with control plants. GR80 values were assigned for each compound as described above for the pre-emergence tests.

[1] = test system: AGSST (creeping bentgrass); experiment: Post-emergence herbicidal activity, cool season; format: in vivo, Agrostis stolonifera; settings: abraded plants sprayed at 300, 100, 30 and 10 g/ha; about 14 days after treatment
Procedure: as §1, §2, §3, §4, §5

corn (ZEAMX) = experiment: Selectivity test, PPI, warm season crop; format: in vivo, Zea mays; settings: PPI application; for inhibition at 10 g/ha / inhibition at 30 g/ha / inhibition at 100 g/ha / inhibition at 300 g/ha / inhibition at 900 g/ha: Zea mays, read-out: Percent inhibition ZEAMX
Procedure: (§6) A pre-prepared topsoil mixture (described above) was placed in a pot and compacted to a depth of 1.0 to 1.25 cm from the top of the pot. Seeds of each of several monocotyledonous and dicotyledonous annual plant species were placed on top of the soil. A sufficient quantity of soil to cover the seeds and level fill the pot was weighed into an open container. A known amount of the test compound was dissolved or suspended in an organic solvent and applied by spraying to this cover soil. The cover soil was thoroughly mixed to distribute the test compound throughout the cover soil, and was then applied as a cover layer over the seeds. Untreated soil was used as a cover layer for control pots. After treatment the plants were placed in a greenhouse where they received 0.64 cm of overhead irrigation. All subsequent watering consisted of a light overhead mist and/or subirrigation as needed for germination and growth. Tables 9 and 10 below relate to warm season plant species which were placed after pre-emergence treatment in a greenhouse with a 30/21° C. day/night temperature regime. Tables 11 and 12 below relates to cool season plant species placed after pre-emergence treatment in a greenhouse or growth chamber with an 18/13° C. day/night temperature regime. Only the compounds of Examples 1, 6, 8, 11, 13 and 15-20 were included in PPI tests.
(§7) Approximately 14 days after planting and treating, the plants were observed and herbicidal efficacy recorded as percent inhibition by comparison with untreated plants.
(§8) Additional pre-emergence and PPI tests were conducted by the procedures described above, on warm and cool season weed species in the presence of crop species, to assess herbicidal selectivity. Crop species included in warm season tests were corn (Zea mays, ZEAMX), rice (Oryza sativa, ORYSA) and soybean (Glycine max, GLYMX). Crop species included in cool season tests were wheat (Triticum aestivum, TRZAW), barley (Hordeunm vulgare, HORVX) and oilseed rape (Brassica napus, BRSNS).
(§9) Tables 15 and 16 relate to pre-emergence and PPI tests respectively on warm season species. Table 17 relates to pre-emergence tests on cool season species.

ECHCG (barnyardgrass) = experiment: Pre-emergence herbicidal activity, warm season; format: in vivo, Echinochloa crus-galli; settings: for inhibition at 10 g/ha / inhibition at 30 g/ha / inhibition at 100 g/ha / inhibition at 300 g/ha / inhibition at 900 g/ha: Echinochloa crus-galli, pre-emergence application, read-out: Percent inhibition, weed ECHCG; for Pre-emergence activity (GR80) ECHCG: GR80 = lowest tested rate (300, 100, 30, 10 g/ha) with 80% or greater inhibition, approx. 14 days after treating, 30/21° C.
Summary of the method: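 GR80 values derive from percent inhibition relative to untreated plants, read roughly 14 days after sowing and pre-emergence soil-surface treatment (compound in 50:50 acetone/water; rates typically 10, 30, 100, 300 g/ha). Warm-season weeds grew at 30/21° C day/night, cool-season ones at 18/13° C; an asterisk marks activity without reaching 80% at the highest rate.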

oilseed rape (BRSNS) = experiment: Selectivity test, PPI, cool season crop; format: in vivo, Brassica napus; settings: PPI application; for inhibition at 30 g/ha / inhibition at 100 g/ha / inhibition at 300 g/ha / inhibition at 900 g/ha: Brassica napus, read-out: Percent inhibition BRSNS
Procedure: as §6, §7, §8, §9

barley (HORVX) = experiment: Selectivity test, PPI, cool season crop; format: in vivo, Hordeunm vulgare; settings: PPI application; for inhibition at 30 g/ha / inhibition at 100 g/ha / inhibition at 300 g/ha / inhibition at 900 g/ha: Hordeum vulgare, read-out: Percent inhibition HORVX
Procedure: as §6, §7, §8, §9

| Structure (SMILES) | Post-emergence activity GR80, BROTE (BROTE (downy brome)) | Post-emergence activity GR80, AGSST [1] | inhibition at 30 g/ha (corn (ZEAMX); 30 g/ha) | inhibition at 100 g/ha (corn (ZEAMX); 100 g/ha) | inhibition at 300 g/ha (corn (ZEAMX); 300 g/ha) | inhibition at 900 g/ha (corn (ZEAMX); 900 g/ha) | Pre-emergence activity (GR80) ECHCG (ECHCG (barnyardgrass)) | Percent inhibition ZEAMX (corn (ZEAMX); 30 g/ha) | Percent inhibition ZEAMX (corn (ZEAMX); 100 g/ha) | Percent inhibition ZEAMX (corn (ZEAMX); 300 g/ha) | Percent inhibition ZEAMX (corn (ZEAMX); 900 g/ha) | Percent inhibition BRSNS (oilseed rape (BRSNS); 30 g/ha) | Percent inhibition BRSNS (oilseed rape (BRSNS); 100 g/ha) | Percent inhibition BRSNS (oilseed rape (BRSNS); 300 g/ha) | Percent inhibition BRSNS (oilseed rape (BRSNS); 900 g/ha) | Percent inhibition HORVX (barley (HORVX); 30 g/ha) | Percent inhibition HORVX (barley (HORVX); 100 g/ha) | Percent inhibition HORVX (barley (HORVX); 300 g/ha) | Percent inhibition HORVX (barley (HORVX); 900 g/ha) | also measured |
| --- | --- | --- | --- | --- | --- | --- | --- | --- | --- | --- | --- | --- | --- | --- | --- | --- | --- | --- | --- | --- |
| CCN(CC)C(=O)n1cnc(S(=O)(=O)C(F)(F)Br)n1 [Example 1, 3-(bromodifluoromethylsulfonyl)-1-(N,N-diethylcarbamoyl)-1,2,4-triazole] | [empty] | [empty] | 0% | 0% | 25% | 70% | 30 g/ha | – | – | – | – | – | – | – | – | – | – | – | – | inhibition at 10 g/ha (corn (ZEAMX); 10 g/ha): 0%; inhibition at 10 g/ha (ECHCG (barnyardgrass)): 0%; inhibition at 30 g/ha (ECHCG (barnyardgrass)): 10%; inhibition at 100 g/ha (ECHCG (barnyardgrass)): 45%; inhibition at 300 g/ha (ECHCG (barnyardgrass)): 80%; inhibition at 900 g/ha (ECHCG (barnyardgrass)): 95%; inhibition at 30 g/ha (oilseed rape (BRSNS); 30 g/ha): 60%; inhibition at 100 g/ha (oilseed rape (BRSNS); 100 g/ha): 20%; inhibition at 300 g/ha (oilseed rape (BRSNS); 300 g/ha): 99%; inhibition at 900 g/ha (oilseed rape (BRSNS); 900 g/ha): 100%; inhibition at 30 g/ha (barley (HORVX); 30 g/ha): 0%; inhibition at 100 g/ha (barley (HORVX); 100 g/ha): 10%; inhibition at 300 g/ha (barley (HORVX); 300 g/ha): 30%; inhibition at 900 g/ha (barley (HORVX); 900 g/ha): 50% |
| CCN(CC)C(=O)n1cnc(S(=O)(=O)C(F)(F)F)n1 [Example 2] | – | – | – | – | – | – | 30 g/ha | 5% | 10% | 50% | 80% | 0% | 80% | 100% | 100% | 0% | 30% | 20% | 100% | – |
| CCN(CC)C(=O)n1cnc(S(=O)(=O)C(F)(F)Cl)n1 [Example 3] | – | – | – | – | – | – | 30 g/ha | 5% | 10% | 30% | 55% | 100% | 100% | 100% | 100% | 0% | 0% | 10% | 80% | – |
| CCN(CC)C(=O)n1cnc(S(=O)(=O)C(F)(F)C(F)(F)Br)n1 [Example 4] | – | – | – | – | – | – | 100 g/ha | 0% | 5% | 40% | 50% | 80% | 100% | 100% | 100% | 0% | 0% | 50% | 90% | – |
| CCN(CC)C(=O)n1cnc(S(=O)(=O)C(F)(F)C(=O)c2ccccc2)n1 [Example 6] | – | – | – | – | – | – | * (activity observed, at least at highest rate, but <80% inhibition) | – | – | – | – | – | – | – | – | – | – | – | – | – |
| CCSC(F)(F)S(=O)(=O)c1ncn(C(=O)N(CC)CC)n1 [Example 8, 1-(N,N-diethylcarbamoyl)-3-[difluoro(ethylthio)methylsulfonyl]-1,2,4-triazole] | [empty] | [empty] | 0% | 5% | 65% | 95% | 100 g/ha | – | – | – | – | – | – | – | – | – | – | – | – | inhibition at 30 g/ha (oilseed rape (BRSNS); 30 g/ha): 0%; inhibition at 100 g/ha (oilseed rape (BRSNS); 100 g/ha): 0%; inhibition at 300 g/ha (oilseed rape (BRSNS); 300 g/ha): 40%; inhibition at 900 g/ha (oilseed rape (BRSNS); 900 g/ha): 100%; inhibition at 30 g/ha (barley (HORVX); 30 g/ha): 0%; inhibition at 100 g/ha (barley (HORVX); 100 g/ha): 0%; inhibition at 300 g/ha (barley (HORVX); 300 g/ha): 10%; inhibition at 900 g/ha (barley (HORVX); 900 g/ha): 60% |
| CCN(CC)C(=O)n1cnc(S(=O)(=O)C(F)(F)SC)n1 [Example 9] | [empty] | [empty] | – | – | – | – | 300 g/ha | 0% | 10% | 90% | 99% | 50% | 95% | 100% | 100% | 0% | 0% | 10% | 40% | – |
| CCN(CC)C(=O)n1cnc(S(=O)(=O)C(F)(F)C(F)(F)SC)n1 [Example 14] | [empty] | 300 g/ha | – | – | – | – | 300 g/ha | – | – | – | – | – | – | – | – | – | – | – | – | – |
| CCN(CC)C(=O)n1cnc(S(=O)(=O)C(F)F)n1 [Example 15, 1-(N,N-diethylcarbamoyl)-3-(difluoromethylsulfonyl)-1,2,4-triazole] | [empty] | [empty] | 0% | 20% | 60% | 85% | 100 g/ha | – | – | – | – | – | – | – | – | – | – | – | – | inhibition at 10 g/ha (corn (ZEAMX); 10 g/ha): 0%; inhibition at 10 g/ha (ECHCG (barnyardgrass)): 0%; inhibition at 30 g/ha (ECHCG (barnyardgrass)): 0%; inhibition at 100 g/ha (ECHCG (barnyardgrass)): 20%; inhibition at 300 g/ha (ECHCG (barnyardgrass)): 60%; inhibition at 900 g/ha (ECHCG (barnyardgrass)): 70% |
| CCN(CC)C(=O)n1cnc(S(=O)(=O)C(F)(F)C(F)F)n1 [Example 16] | – | – | – | – | – | – | 100 g/ha | 5% | 20% | 40% | 80% | 0% | 0% | 30% | 75% | 0% | 10% | 25% | 20% | Percent inhibition ZEAMX (corn (ZEAMX); 10 g/ha): 0%; Percent inhibition BRSNS (oilseed rape (BRSNS); 10 g/ha): 0%; Percent inhibition HORVX (barley (HORVX); 10 g/ha): 0% |
